Numbers after ± are expanded uncertainties.
Legend:
[1] = Liquid; for mass density: 298.15 K, 101.33 kPa
[2] = refractive index (Na D-line) (dimensionless); settings: 293.15 K; 101.33 kPa; Liquid; Standard Abbe refractometry
[3] = xn = mol fraction of the nth substance listed; settings: 298.15 K, 101.33 kPa, Liquid

Q: Which mass density [1] does the source give for `CCOC(=O)[C@H](C)O` [(S)-(-)-ethyl lactate] here?
A: 1032.94 ± 0.24 kg/m3

Q: What about the “vapor or sublimation pressure” value ([1]; 427.65 K) of the same compound?
A: 101.33 ± 0.34 kPa

Q: What about the refractive index [2] of the same compound?
A: 1.4129 ± 0.0007

Q: Which mass density ([3]; x2 = 0) does the source give for `CCOC(=O)[C@H](C)O` [(S)-(-)-ethyl lactate] + CCO here?
A: 1032.94 ± 0.24 kg/m3

Q: What about the mass density ([3]; x2 = 0.1242) of the same compound?
A: 1018.42 ± 0.21 kg/m3

Q: What about the mass density ([3]; x2 = 0.2256) of the same compound?
A: 1004.73 ± 0.19 kg/m3

Q: And the mass density ([3]; x2 = 0.312)?
A: 991.37 ± 0.2 kg/m3

Q: And the mass density ([3]; x2 = 0.3921)?
A: 977.447 ± 0.23 kg/m3

Q: What about the mass density ([3]; x2 = 0.5236) of the same compound?
A: 950.894 ± 0.29 kg/m3

Q: And the mass density ([3]; x2 = 0.5735)?
A: 939.295 ± 0.31 kg/m3

Q: What about the mass density ([3]; x2 = 0.6735) of the same compound?
A: 913.364 ± 0.35 kg/m3

Q: What about the mass density ([3]; x2 = 0.7574) of the same compound?
A: 887.971 ± 0.4 kg/m3

Q: What about the mass density ([3]; x2 = 0.7941) of the same compound?
A: 875.598 ± 0.42 kg/m3

Q: And the mass density ([3]; x2 = 0.8267)?
A: 863.971 ± 0.44 kg/m3

Q: And the mass density ([3]; x2 = 0.8559)?
A: 852.975 ± 0.47 kg/m3

Q: What about the mass density ([3]; x2 = 0.9578) of the same compound?
A: 809.773 ± 0.55 kg/m3

Q: With `CCCCO` [butan-1-ol] as the compound, how does the mass density [1] read?
A: 809.572 ± 0.55 kg/m3

Q: And the “vapor or sublimation pressure” value ([1]; 390.88 K)?
A: 101.33 ± 0.34 kPa

Q: And the refractive index [2]?
A: 1.3993 ± 0.0007

Q: For `CCCCO` [butan-1-ol] + CCCCOC(=O)[C@H](C)O, which mass density ([3]; x1 = 1) is on record?
A: 809.572 ± 0.55 kg/m3

Q: Which mass density [1] does the source give for `CCCCOC(=O)[C@H](C)O` [butyl L-lactate] here?
A: 982.178 ± 0.21 kg/m3

Q: What about the “vapor or sublimation pressure” value ([1]; 390 K) of the same compound?
A: 10.62 ± 0.35 kPa

Q: What about the “vapor or sublimation pressure” value ([1]; 395 K) of the same compound?
A: 13.01 ± 0.36 kPa

Q: And the “vapor or sublimation pressure” value ([1]; 400 K)?
A: 15.8 ± 0.37 kPa

Q: What about the “vapor or sublimation pressure” value ([1]; 405 K) of the same compound?
A: 19.04 ± 0.38 kPa

Q: What about the “vapor or sublimation pressure” value ([1]; 410 K) of the same compound?
A: 22.79 ± 0.39 kPa

Q: And the “vapor or sublimation pressure” value ([1]; 415 K)?
A: 27.09 ± 0.41 kPa

Q: And the “vapor or sublimation pressure” value ([1]; 420 K)?
A: 32 ± 0.42 kPa

Q: And the “vapor or sublimation pressure” value ([1]; 425 K)?
A: 37.58 ± 0.44 kPa

Q: What about the “vapor or sublimation pressure” value ([1]; 430 K) of the same compound?
A: 43.87 ± 0.46 kPa

Q: What about the “vapor or sublimation pressure” value ([1]; 435 K) of the same compound?
A: 50.94 ± 0.48 kPa

Q: What about the “vapor or sublimation pressure” value ([1]; 440 K) of the same compound?
A: 58.84 ± 0.51 kPa

Q: What about the “vapor or sublimation pressure” value ([1]; 445 K) of the same compound?
A: 67.65 ± 0.54 kPa

Q: What about the “vapor or sublimation pressure” value ([1]; 450 K) of the same compound?
A: 77.41 ± 0.57 kPa

Q: And the “vapor or sublimation pressure” value ([1]; 455 K)?
A: 88.19 ± 0.6 kPa

Q: And the “vapor or sublimation pressure” value ([1]; 460 K)?
A: 100.05 ± 0.64 kPa

Q: What about the “vapor or sublimation pressure” value ([1]; 460.75 K) of the same compound?
A: 101.33 ± 0.65 kPa

Q: What about the refractive index [2] of the same compound?
A: 1.4218 ± 0.0007

Q: With `CCCCOC(=O)[C@H](C)O` [butyl L-lactate] + CCCCO as the compound, how does the mass density ([3]; x2 = 0) read?
A: 982.178 ± 0.21 kg/m3

Q: And the mass density ([3]; x2 = 0.0989)?
A: 971.809 ± 0.23 kg/m3

Q: What about the mass density ([3]; x2 = 0.1806) of the same compound?
A: 962.459 ± 0.25 kg/m3

Q: What about the mass density ([3]; x2 = 0.2599) of the same compound?
A: 952.704 ± 0.27 kg/m3

Q: What about the mass density ([3]; x2 = 0.3973) of the same compound?
A: 933.863 ± 0.31 kg/m3

Q: And the mass density ([3]; x2 = 0.5154)?
A: 915.521 ± 0.35 kg/m3

Q: What about the mass density ([3]; x2 = 0.5669) of the same compound?
A: 906.818 ± 0.36 kg/m3

Q: What about the mass density ([3]; x2 = 0.6645) of the same compound?
A: 888.883 ± 0.4 kg/m3

Q: What about the mass density ([3]; x2 = 0.7069) of the same compound?
A: 880.503 ± 0.41 kg/m3

Q: And the mass density ([3]; x2 = 0.7854)?
A: 863.836 ± 0.44 kg/m3

Q: What about the mass density ([3]; x2 = 0.8546) of the same compound?
A: 847.901 ± 0.47 kg/m3

Q: What about the mass density ([3]; x2 = 0.9174) of the same compound?
A: 832.199 ± 0.5 kg/m3

Q: What about the mass density ([3]; x2 = 0.9728) of the same compound?
A: 817.297 ± 0.53 kg/m3

Q: What does the source list for `CCO` [ethanol]?
A: mass density [1]: 789.261 ± 0.59 kg/m3; vapor or sublimation pressure ([1]; 351.44 K): 101.33 ± 0.34 kPa; refractive index [2]: 1.3614 ± 0.0007

Q: For `CCO` [ethanol] + CCOC(=O)[C@H](C)O, which mass density ([3]; x1 = 1) is on record?
A: 789.261 ± 0.59 kg/m3

Q: Which results are given for `CC(C)OC(=O)[C@H](C)O` [isopropyl (S)-2-hydroxypropionate]?
A: mass density [1]: 986.942 ± 0.2 kg/m3; vapor or sublimation pressure ([1]; 355 K): 7.424 ± 0.34 kPa; vapor or sublimation pressure ([1]; 360 K): 9.156 ± 0.35 kPa; vapor or sublimation pressure ([1]; 365 K): 11.22 ± 0.36 kPa; vapor or sublimation pressure ([1]; 370 K): 13.68 ± 0.36 kPa; vapor or sublimation pressure ([1]; 375 K): 16.58 ± 0.37 kPa; vapor or sublimation pressure ([1]; 380 K): 20 ± 0.38 kPa; vapor or sublimation pressure ([1]; 385 K): 23.99 ± 0.4 kPa; vapor or sublimation pressure ([1]; 390 K): 28.63 ± 0.41 kPa; vapor or sublimation pressure ([1]; 395 K): 34.02 ± 0.43 kPa; vapor or sublimation pressure ([1]; 400 K): 40.24 ± 0.45 kPa; vapor or sublimation pressure ([1]; 405 K): 47.39 ± 0.47 kPa; vapor or sublimation pressure ([1]; 410 K): 55.59 ± 0.5 kPa; vapor or sublimation pressure ([1]; 415 K): 64.93 ± 0.53 kPa; vapor or sublimation pressure ([1]; 420 K): 75.56 ± 0.56 kPa; vapor or sublimation pressure ([1]; 425 K): 87.6 ± 0.6 kPa; vapor or sublimation pressure ([1]; 430 K): 101.19 ± 0.64 kPa; vapor or sublimation pressure ([1]; 430.21 K): 101.33 ± 0.64 kPa; refractive index [2]: 1.4105 ± 0.0007

Q: Which results are given for `CC(C)OC(=O)[C@H](C)O` [isopropyl (S)-2-hydroxypropionate] + CC(C)O?
A: mass density ([3]; x2 = 0): 986.942 ± 0.2 kg/m3; mass density ([3]; x2 = 0.087): 976.815 ± 0.22 kg/m3; mass density ([3]; x2 = 0.197): 962.69 ± 0.25 kg/m3; mass density ([3]; x2 = 0.281): 950.807 ± 0.27 kg/m3; mass density ([3]; x2 = 0.3554): 939.404 ± 0.3 kg/m3; mass density ([3]; x2 = 0.542): 906.498 ± 0.37 kg/m3; mass density ([3]; x2 = 0.5652): 901.903 ± 0.37 kg/m3; mass density ([3]; x2 = 0.6921): 874.425 ± 0.42 kg/m3; mass density ([3]; x2 = 0.7733): 854.447 ± 0.46 kg/m3; mass density ([3]; x2 = 0.8365): 837.361 ± 0.49 kg/m3; mass density ([3]; x2 = 0.8675): 828.428 ± 0.51 kg/m3; mass density ([3]; x2 = 0.9249): 810.801 ± 0.55 kg/m3; mass density ([3]; x2 = 0.9516): 802.104 ± 0.56 kg/m3

Q: With `CC(C)O` [propan-2-ol] as the compound, how does the mass density [1] read?
A: 785.428 ± 0.6 kg/m3

Q: What about the “vapor or sublimation pressure” value ([1]; 355.36 K) of the same compound?
A: 101.33 ± 0.34 kPa

Q: What about the refractive index [2] of the same compound?
A: 1.3774 ± 0.0007

Q: For `CC(C)O` [propan-2-ol] + CC(C)OC(=O)[C@H](C)O, which mass density ([3]; x1 = 1) is on record?
A: 785.428 ± 0.6 kg/m3
